{"source": "paper PMC5218480", "about": "(PLoS ONE, 2017)", "tested_on": "MV-4-11 cells", "experiment": "Gene expression microarray analysis (Affymetrix PrimeView) and GSEA", "assay_type": "cell-based, human", "set-up": "RFU PODN (11730768_x_at) / Fold change /veh PODN (11730768_x_at) / RFU LINC00158 (11744669_a_at) / Fold change /veh LINC00158 (11744669_a_at) / RFU DUSP10 (11751237_a_at) / Fold change /veh DUSP10 (11751237_a_at) / RFU ID3 (11757404_x_at) / Fold change /veh ID3 (11757404_x_at) / RFU PLEKHG5 (11737974_s_at) / Fold change /veh PLEKHG5 (11737974_s_at) / RFU LRRC4B (11730491_at) / Fold change /veh LRRC4B (11730491_at) / RFU GIMAP4 (11747438_a_at) / Fold change /veh GIMAP4 (11747438_a_at) / RFU KRT8 (11758183_x_at) / Fold change /veh KRT8 (11758183_x_at) / RFU CNN1 (11734310_a_at) / Fold change /veh CNN1 (11734310_a_at) / RFU VPS37D (11726825_at) / Fold change /veh VPS37D (11726825_at) / RFU C10orf10 (11716522_x_at) / Fold change /veh C10orf10 (11716522_x_at) / RFU KIR2DL2 /// KIR2DL4 /// KIR2DL5A /// KIR2DL5B /// KIR2DS1 /// KIR2DS2 /// KIR2DS3 /// KIR2DS4 /// KIR3DL3 /// KIR3DL3 /// KIR3DS1 (11738374_at) / Fold change /veh KIR2DL2 /// KIR2DL4 /// KIR2DL5A /// KIR2DL5B /// KIR2DS1 /// KIR2DS2 /// KIR2DS3 /// KIR2DS4 /// KIR3DL3 /// KIR3DL3 /// KIR3DS1 (11738374_at) / RFU C1QL1 (11718748_at) / Fold change /veh C1QL1 (11718748_at) / RFU TMPRSS4 (11747572_a_at) / Fold change /veh TMPRSS4 (11747572_a_at) / RFU HAMP (11756126_x_at) / Fold change /veh HAMP (11756126_x_at) / RFU RNFT2 (11725882_a_at) / Fold change /veh RNFT2 (11725882_a_at) / RFU NR4A2 (11747474_a_at) / Fold change /veh NR4A2 (11747474_a_at) / RFU ABCC12 (11746883_a_at) / Fold change /veh ABCC12 (11746883_a_at) / RFU TMEM136 (11760407_x_at) / Fold change /veh TMEM136 (11760407_x_at) / RFU CLDN22 /// WWC2 (11732394_at) / Fold change /veh CLDN22 /// WWC2 (11732394_at) / RFU HLA-DPB1 (11760878_x_at) / Fold change /veh HLA-DPB1 (11760878_x_at) / RFU SPINT1 (11716480_a_at) / Fold change /veh SPINT1 (11716480_a_at) / RFU GAP43 (11754022_s_at) / Fold change /veh GAP43 (11754022_s_at) / RFU A4GNT (11735810_at) / Fold change /veh A4GNT (11735810_at) / RFU PRB3 (11715151_x_at) / Fold change /veh PRB3 (11715151_x_at) / RFU TUBB4B (11761932_at) / Fold change /veh TUBB4B (11761932_at) / RFU CAPN14 (11732068_a_at) / Fold change /veh CAPN14 (11732068_a_at) / RFU TMCC2 (11721928_a_at) / Fold change /veh TMCC2 (11721928_a_at) / RFU IRGQ (11745062_a_at) / Fold change /veh IRGQ (11745062_a_at) / RFU FAM174B (11720279_a_at) / Fold change /veh FAM174B (11720279_a_at) / RFU TMPRSS4 (11748680_a_at) / Fold change /veh TMPRSS4 (11748680_a_at) / RFU FAM212B (11763350_a_at) / Fold change /veh FAM212B (11763350_a_at) / RFU PLEKHG5 (11743358_a_at) / Fold change /veh PLEKHG5 (11743358_a_at) / RFU ZSCAN30 (11745921_a_at) / Fold change /veh ZSCAN30 (11745921_a_at) / RFU CMKLR1 (11741424_a_at) / Fold change /veh CMKLR1 (11741424_a_at) / RFU LOC101060620 /// MAPK8IP1 (11723275_at) / Fold change /veh LOC101060620 /// MAPK8IP1 (11723275_at) / RFU SPTSSB (11747773_x_at) / Fold change /veh SPTSSB (11747773_x_at) / RFU PRSS12 (11739890_at) / Fold change /veh PRSS12 (11739890_at) / RFU BIN1 (11741810_x_at) / Fold change /veh BIN1 (11741810_x_at) / RFU WNT11 (11732464_a_at) / Fold change /veh WNT11 (11732464_a_at) / RFU C10orf10 (11716521_a_at) / Fold change /veh C10orf10 (11716521_a_at) / RFU C5orf56 (11738089_at) / Fold change /veh C5orf56 (11738089_at) / RFU CYB561 (11721691_x_at) / Fold change /veh CYB561 (11721691_x_at) / RFU ANKRD19P (11752326_a_at) / Fold change /veh ANKRD19P (11752326_a_at) / RFU OR2T12 /// OR2T33 /// OR2T8 (11738714_s_at) / Fold change /veh OR2T12 /// OR2T33 /// OR2T8 (11738714_s_at) / RFU VCAN (11748164_a_at) / Fold change /veh VCAN (11748164_a_at) / RFU JSRP1 (11732532_at) / Fold change /veh JSRP1 (11732532_at) / RFU KRTAP10-11 (11738290_x_at) / Fold change /veh KRTAP10-11 (11738290_x_at) / RFU MYO3A (11730013_a_at) / Fold change /veh MYO3A (11730013_a_at) / RFU EBF3 (11725865_a_at) / Fold change /veh EBF3 (11725865_a_at) / RFU CAMK2N1 (11719241_x_at) / Fold change /veh CAMK2N1 (11719241_x_at) / RFU C5orf56 (11738088_a_at) / Fold change /veh C5orf56 (11738088_a_at) / RFU OLFML3 (11715873_a_at) / Fold change /veh OLFML3 (11715873_a_at) / RFU LOC100653217 /// NTM (11731650_a_at) / Fold change /veh LOC100653217 /// NTM (11731650_a_at) / RFU MAPK11 (11762145_a_at) / Fold change /veh MAPK11 (11762145_a_at) / RFU FIZ1 (11724087_x_at) / Fold change /veh FIZ1 (11724087_x_at) / RFU OASL (11726364_x_at) / Fold change /veh OASL (11726364_x_at) / RFU SOX15 (11748057_x_at) / Fold change /veh SOX15 (11748057_x_at) / RFU CD79A (11719716_a_at) / Fold change /veh CD79A (11719716_a_at) / RFU HIST1H1D (11736915_at) / Fold change /veh HIST1H1D (11736915_at) / RFU CASKIN2 (11723855_a_at) / Fold change /veh CASKIN2 (11723855_a_at) / RFU LOC730098 (11760151_x_at) / Fold change /veh LOC730098 (11760151_x_at) / RFU OR4N2 (11742367_at) / Fold change /veh OR4N2 (11742367_at) / RFU PRRT2 (11749266_a_at) / Fold change /veh PRRT2 (11749266_a_at) / RFU SNX32 (11753110_a_at) / Fold change /veh SNX32 (11753110_a_at) / RFU CDHR5 (11726645_a_at) / Fold change /veh CDHR5 (11726645_a_at) / RFU RCAN1 (11760418_a_at) / Fold change /veh RCAN1 (11760418_a_at) / RFU FAM167A (11723789_a_at) / Fold change /veh FAM167A (11723789_a_at) / RFU FAM26E (11764081_at) / Fold change /veh FAM26E (11764081_at) / RFU ISYNA1 (11749810_s_at) / Fold change /veh ISYNA1 (11749810_s_at) / RFU ACY1 (11761880_at) / Fold change /veh ACY1 (11761880_at) / RFU 11764098_at / Fold change /veh 11764098_at / RFU SAMD14 (11745864_x_at) / Fold change /veh SAMD14 (11745864_x_at) / RFU NPB (11741838_a_at) / Fold change /veh NPB (11741838_a_at) / RFU TMPRSS6 (11731388_a_at) / Fold change /veh TMPRSS6 (11731388_a_at) / RFU KRTAP10-2 (11738614_at) / Fold change /veh KRTAP10-2 (11738614_at) / RFU ARHGAP8 /// PRR5-ARHGAP8 (11727945_x_at) / Fold change /veh ARHGAP8 /// PRR5-ARHGAP8 (11727945_x_at) / RFU KRTAP5-7 /// NADSYN1 (11734609_at) / Fold change /veh KRTAP5-7 /// NADSYN1 (11734609_at) / RFU RASL12 (11751679_a_at) / Fold change /veh RASL12 (11751679_a_at) / RFU CDKN2B (11736163_a_at) / Fold change /veh CDKN2B (11736163_a_at) / RFU PRF1 (11729649_at) / Fold change /veh PRF1 (11729649_at) / RFU, ZNF638 /// ZNF638-IT1 / Fold change vs veh, ZNF638 /// ZNF638-IT1 / RFU, PANK3 / Fold change vs veh, PANK3 / RFU, SH3YL1 / Fold change vs veh, SH3YL1 / RFU, ZEB2 / Fold change vs veh, ZEB2 / RFU, NRIP1 / Fold change vs veh, NRIP1 / RFU, PTTG1IP / Fold change vs veh, PTTG1IP / RFU, CAPN2 / Fold change vs veh, CAPN2 / RFU, MED14 / Fold change vs veh, MED14 / RFU, SNORA58 / Fold change vs veh, SNORA58 / RFU, C1orf63 / Fold change vs veh, C1orf63 / RFU, LRRFIP1 / Fold change vs veh, LRRFIP1 / RFU, NDUFAF7 / Fold change vs veh, NDUFAF7 / RFU, SLC12A2 / Fold change vs veh, SLC12A2 / RFU, IBTK / Fold change vs veh, IBTK / RFU, ESF1 / Fold change vs veh, ESF1 / Fold change vs veh, TMEM50B / RFU, TAOK1 / Fold change vs veh, TAOK1 / RFU, ACBD3 / Fold change vs veh, ACBD3 / RFU, TMA16 / Fold change vs veh, TMA16 / RFU, RWDD3 / Fold change vs veh, RWDD3 / RFU, BCAT1 / Fold change vs veh, BCAT1 / RFU, EDEM3 / Fold change vs veh, EDEM3 / RFU, TMEM33 / Fold change vs veh, TMEM33 / RFU, WDR75 / Fold change vs veh, WDR75 / RFU, AHCTF1 / Fold change vs veh, AHCTF1 / RFU, TFRC / Fold change vs veh, TFRC / RFU, ZDHHC17 / Fold change vs veh, ZDHHC17 / RFU, NOM1 / Fold change vs veh, NOM1 / RFU, ARL8B / Fold change vs veh, ARL8B / RFU, ZBTB11 / Fold change vs veh, ZBTB11 / RFU, TAMM41 / Fold change vs veh, TAMM41 / RFU, KIAA1704 /// LOC100996395 / Fold change vs veh, KIAA1704 /// LOC100996395 / RFU, ING1 / Fold change vs veh, ING1 / RFU, TRMT61B / Fold change vs veh, TRMT61B / RFU, FUBP3 / Fold change vs veh, FUBP3 / RFU, TP53 / Fold change vs veh, TP53 / RFU, TNKS2 / Fold change vs veh, TNKS2 / RFU, ZFP14 / Fold change vs veh, ZFP14 / RFU, ACTR2 / Fold change vs veh, ACTR2 / RFU, PPP3R1 / Fold change vs veh, PPP3R1 / RFU, PIK3R1 / Fold change vs veh, PIK3R1 / RFU, HNRNPA1 / Fold change vs veh, HNRNPA1 / RFU, RNF170 / Fold change vs veh, RNF170 / RFU, ZNF28 / Fold change vs veh, ZNF28 / RFU, RNGTT / Fold change vs veh, RNGTT / RFU, OGT / Fold change vs veh, OGT / RFU, BRD1 / Fold change vs veh, BRD1 / RFU, MARS / Fold change vs veh, MARS / RFU, ZNF655 / Fold change vs veh, ZNF655 / RFU, FAHD1 / Fold change vs veh, FAHD1 / RFU, BDP1 / Fold change vs veh, BDP1 / RFU, LRRCC1 / Fold change vs veh, LRRCC1 / RFU, ARID1A / Fold change vs veh, ARID1A / RFU, ZNF146 / Fold change vs veh, ZNF146 / RFU, ZNF330 / Fold change vs veh, ZNF330 / RFU, GPN3 / Fold change vs veh, GPN3 / RFU, C9orf123 / Fold change vs veh, C9orf123 / RFU, N4BP2L2 / Fold change vs veh, N4BP2L2 / RFU, ARFIP1 / Fold change vs veh, ARFIP1 / RFU, FAM179B / Fold change vs veh, FAM179B / RFU, BCL10 / Fold change vs veh, BCL10 / RFU, UHRF1BP1L / Fold change vs veh, UHRF1BP1L / RFU, BET1 / Fold change vs veh, BET1 / RFU, CNOT2 / Fold change vs veh, CNOT2 / RFU, ZNF268 / Fold change vs veh, ZNF268 / Fold change vs veh, ZNF507 / RFU, DGCR2 / Fold change vs veh, DGCR2 / RFU, WDSUB1 / Fold change vs veh, WDSUB1 / Fold change vs veh, HSP90B1 /// MIR3652 / RFU, ADSS / Fold change vs veh, ADSS / RFU, GK / Fold change vs veh, GK / RFU, ZNF148 / Fold change vs veh, ZNF148 / RFU, TAF9 / Fold change vs veh, TAF9 / RFU, SLC1A5 / Fold change vs veh, SLC1A5 / RFU, SLMO2 / Fold change vs veh, SLMO2 / RFU, ABCC4 / Fold change vs veh, ABCC4 / RFU, LOC101060439 /// RAP1B / Fold change vs veh, LOC101060439 /// RAP1B / RFU, RFX7 / Fold change vs veh, RFX7 / RFU, GTPBP10 / Fold change vs veh, GTPBP10 / RFU, CNEP1R1 / Fold change vs veh, CNEP1R1 / RFU, BIVM-ERCC5 /// ERCC5 / Fold change vs veh, BIVM-ERCC5 /// ERCC5 / RFU, ILF3 / Fold change vs veh, ILF3 / RFU 11762660_at / Fold change /veh 11762660_at / RFU VCAN (11757783_s_at) / Fold change /veh VCAN (11757783_s_at) / RFU DDX43 (11728927_at) / Fold change /veh DDX43 (11728927_at) / RFU KRT8 (11758188_x_at) / Fold change /veh KRT8 (11758188_x_at) / RFU NKD1 (11759106_at) / Fold change /veh NKD1 (11759106_at) / RFU SRD5A1 (11742802_a_at) / Fold change /veh SRD5A1 (11742802_a_at) / RFU TPSAB1 /// TPSB2 (11721975_s_at) / Fold change /veh TPSAB1 /// TPSB2 (11721975_s_at) / RFU GSTM3 (11746129_a_at) / Fold change /veh GSTM3 (11746129_a_at) / RFU IL23R (11737362_x_at) / Fold change /veh IL23R (11737362_x_at) / RFU TMEM51 (11727254_a_at) / Fold change /veh TMEM51 (11727254_a_at) / RFU PIWIL2 (11732686_x_at) / Fold change /veh PIWIL2 (11732686_x_at) / RFU ORM1 (11744905_x_at) / Fold change /veh ORM1 (11744905_x_at) / RFU CCDC152 (11743942_at) / Fold change /veh CCDC152 (11743942_at) / RFU ECM1 (11717891_a_at) / Fold change /veh ECM1 (11717891_a_at) / RFU IL23R (11748794_a_at) / Fold change /veh IL23R (11748794_a_at) / RFU TNFAIP8L3 (11732012_x_at) / Fold change /veh TNFAIP8L3 (11732012_x_at) / RFU MBOAT4 (11741988_at) / Fold change /veh MBOAT4 (11741988_at) / RFU 11764193_at / Fold change /veh 11764193_at / RFU TMEM53 (11763286_at) / Fold change /veh TMEM53 (11763286_at) / RFU MAGEB2 (11727129_at) / Fold change /veh MAGEB2 (11727129_at) / RFU TMEM200A (11744735_a_at) / Fold change /veh TMEM200A (11744735_a_at) / RFU CCDC152 (11751479_a_at) / Fold change /veh CCDC152 (11751479_a_at) / RFU FAM211A (11726209_a_at) / Fold change /veh FAM211A (11726209_a_at) / RFU RGS16 (11746705_a_at) / Fold change /veh RGS16 (11746705_a_at) / RFU VCAN (11755009_s_at) / Fold change /veh VCAN (11755009_s_at) / RFU RHOB (11743442_s_at) / Fold change /veh RHOB (11743442_s_at) / RFU RGS16 (11720943_a_at) / Fold change /veh RGS16 (11720943_a_at) / RFU RGS16 (11720944_at) / Fold change /veh RGS16 (11720944_at) / RFU, VPS4B / Fold change vs veh, VPS4B / RFU, CREB1 / Fold change vs veh, CREB1 / RFU, DNAJC13 / Fold change vs veh, DNAJC13 / RFU, GNAQ / Fold change vs veh, GNAQ / RFU, CDK5R1 / Fold change vs veh, CDK5R1 / RFU, ZRANB3 / Fold change vs veh, ZRANB3 / RFU, CUL4A / Fold change vs veh, CUL4A / RFU, CCNY / Fold change vs veh, CCNY / RFU, UFL1 / Fold change vs veh, UFL1 / RFU, COG3 / Fold change vs veh, COG3 / RFU, DIAPH2 / Fold change vs veh, DIAPH2 / RFU, SKA2 / Fold change vs veh, SKA2 / RFU, AFF3 / Fold change vs veh, AFF3 / RFU, LMF1 / Fold change vs veh, LMF1 / RFU, IPO11 / Fold change vs veh, IPO11 / RFU, DFFB / Fold change vs veh, DFFB / RFU, FOXP1 / Fold change vs veh, FOXP1 / RFU, CARD8 / Fold change vs veh, CARD8 / RFU, STRN3 / Fold change vs veh, STRN3 / RFU, ADK / Fold change vs veh, ADK / RFU, RASSF2 / Fold change vs veh, RASSF2 / RFU, WIPF1 / Fold change vs veh, WIPF1 / RFU, LARP1B / Fold change vs veh, LARP1B / RFU, RASA1 / Fold change vs veh, RASA1 / RFU, RB1 / Fold change vs veh, RB1 / RFU, PPFIA1 / Fold change vs veh, PPFIA1 / RFU, MAT2A / Fold change vs veh, MAT2A / RFU, CCT5 / Fold change vs veh, CCT5 / RFU, WDR92 / Fold change vs veh, WDR92 / RFU, CUX1 / Fold change vs veh, CUX1 / RFU, TTC7A / Fold change vs veh, TTC7A / RFU, TMEM135 / Fold change vs veh, TMEM135 / RFU, DEPTOR / Fold change vs veh, DEPTOR / RFU, CPM / Fold change vs veh, CPM / RFU, DNAJB6 / Fold change vs veh, DNAJB6 / RFU, CACNA2D3 / Fold change vs veh, CACNA2D3 / RFU, DTX4 / Fold change vs veh, DTX4 / RFU, TFCP2 / Fold change vs veh, TFCP2 / RFU, GMCL1 /// GMCL1P1 / Fold change vs veh, GMCL1 /// GMCL1P1 / RFU, AEBP2 / Fold change vs veh, AEBP2 / RFU, SNHG1 /// SNORD22 /// SNORD25 /// SNORD26 /// SNORD27 /// SNORD28 /// SNORD29 /// SNORD31 / Fold change vs veh, SNHG1 /// SNORD22 /// SNORD25 /// SNORD26 /// SNORD27 /// SNORD28 /// SNORD29 /// SNORD31 / Fold change (Aza/veh), C12orf56 (ProbeSet 11735607_a_at) / Fold change (ACY-1035/veh), C12orf56 (ProbeSet 11735607_a_at) / Fold change (Aza/veh), FGFR1OP (ProbeSet 11751329_s_at) / Fold change (ACY-1035/veh), FGFR1OP (ProbeSet 11751329_s_at) / Fold change (Aza/veh), VPS36 (ProbeSet 11739960_a_at) / Fold change (ACY-1035/veh), VPS36 (ProbeSet 11739960_a_at) / RFU SYPL1 (11715823_x_at) / Fold change /veh SYPL1 (11715823_x_at) / RFU IGFBP7 (11715501_s_at) / Fold change /veh IGFBP7 (11715501_s_at) / RFU REEP3 (11722064_at) / Fold change /veh REEP3 (11722064_at) / RFU IGLL1 (11728026_x_at) / Fold change /veh IGLL1 (11728026_x_at): dose or concentration left out as unconfirmed", "conditions": "ProbeSet 11715478_a_at; LIST B"}
{"smiles": "Nc1ncn([C@@H]2O[C@H](CO)[C@@H](O)[C@H]2O)c(=O)n1", "note": "[azacitidine]", "values": [{"measurement": "RFU, TFRC", "result": 131.21, "unit": "RFU"}]}
